Measured values as given in patent publication US20180042899A1, “Method of Treating Transplant Rejection and Autoimmune Diseases” (priority 2012, published 2018).
Read-outs that look alike come from different tables or passages of the source.

Assays:
EAE = conditions: mouse, in vivo; cited from earlier work
IDO = IDO mRNA in cultured splenocytes; assay type: cell-based, mouse; conditions: titrating doses, 4 hours
pDC/T cell coculture = experiment: pDC/T cell co-culture, IDO and FoxP3 mRNA; assay type: cell-based, mouse; conditions: 5 days; SU5416 500 nM, TCDD 10 nM
[1] = in vivo; cited from earlier work
[2] = test system: LPS-induced airway inflammation; conditions: mouse, in vivo; cited from earlier work
[3] = metastatic colorectal cancers; cited from earlier work
AHR [4] = experiment: Antagonism by CH223191 of DRE-driven luciferase activation
naive T cells [5] = experiment: Naive T cells in Th17 conditions, IL-17 ELISA of supernatant; conditions: 3 days
skin graft rejection = conditions: 2 doses of 50 mg/kg, 2 and 5 days after skin grafting
naive T cells [6] = experiment: Naive CD4+ T cells with TGF-β, flow cytometry for FoxP3 and CD39; conditions: TGF-β 2 ng/ml with SU5416 250 nM, day 3
AHR^fxneo/fxneo mice [7] = experiment: In utero exposure, closure of ductus venosus (DV) in AHR hypomorph mice; conditions: single dose 110 mg/kg i.p. to dams at E18.5; AHR^fxneo/fxneo pups at 4 weeks
AHR (AHR^b isoform) = target: T1, AHR (AHR^b isoform) (Mus musculus, UniProt P30561, M589L/N533S/P471L); experiment: Photoaffinity competitive ligand binding with radioligand 125Ibr2N3DpD in hepatic cytosol; design: species or system mouse (C57BL/6J)
T1 construct: from tissue; host or cells: liver of C57BL/6J mice (cytosol in A1; liver in vivo in A7)
T1 sequence (P11499 whole entry partner, one chain of several, canonical isoform): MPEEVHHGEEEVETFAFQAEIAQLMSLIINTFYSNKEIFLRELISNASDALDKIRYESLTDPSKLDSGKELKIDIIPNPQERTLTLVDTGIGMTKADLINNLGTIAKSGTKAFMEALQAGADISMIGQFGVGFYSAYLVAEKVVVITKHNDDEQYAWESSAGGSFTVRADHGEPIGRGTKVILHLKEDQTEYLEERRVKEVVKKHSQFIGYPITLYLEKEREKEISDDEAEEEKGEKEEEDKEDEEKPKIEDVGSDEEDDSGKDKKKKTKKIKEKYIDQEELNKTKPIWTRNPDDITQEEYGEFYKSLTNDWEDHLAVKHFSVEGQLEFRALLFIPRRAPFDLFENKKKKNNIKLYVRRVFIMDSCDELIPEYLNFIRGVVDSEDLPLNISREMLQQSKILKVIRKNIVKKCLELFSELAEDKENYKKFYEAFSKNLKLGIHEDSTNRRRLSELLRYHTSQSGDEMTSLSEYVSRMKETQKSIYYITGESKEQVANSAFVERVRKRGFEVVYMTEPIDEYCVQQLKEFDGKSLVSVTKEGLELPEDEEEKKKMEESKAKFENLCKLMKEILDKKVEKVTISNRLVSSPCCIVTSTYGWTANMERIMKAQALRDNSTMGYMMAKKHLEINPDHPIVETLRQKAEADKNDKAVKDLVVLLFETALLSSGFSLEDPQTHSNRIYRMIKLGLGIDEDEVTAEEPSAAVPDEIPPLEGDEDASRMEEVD

AHR [8] = test system: AHR
AHR^fxneo/fxneo mice [9] = conditions: mouse, in vivo; cited from earlier work
AHR^d [10] = target: T2, AHR^d (Mus musculus, UniProt P30561, A375V); experiment: CYP1A1 mRNA (qPCR) in splenocytes of AHR^d congenic mice
T2 sequence (P11499 whole entry partner, one chain of several): as the sequence (P11499 whole entry partner, one chain of several, canonical isoform) above

[11] = target: T3, AHR A375V (valine point mutation, AHR^d type) (Mus musculus, UniProt P30561, A375V); experiment: DRE-luciferase in COS-1 cells transfected with mAHR-A375V; conditions: read-out: EC50, DRE-luciferase; A375V transfected COS-1 cells, 4 hours
T3 sequence (P30561 10-848 A375V): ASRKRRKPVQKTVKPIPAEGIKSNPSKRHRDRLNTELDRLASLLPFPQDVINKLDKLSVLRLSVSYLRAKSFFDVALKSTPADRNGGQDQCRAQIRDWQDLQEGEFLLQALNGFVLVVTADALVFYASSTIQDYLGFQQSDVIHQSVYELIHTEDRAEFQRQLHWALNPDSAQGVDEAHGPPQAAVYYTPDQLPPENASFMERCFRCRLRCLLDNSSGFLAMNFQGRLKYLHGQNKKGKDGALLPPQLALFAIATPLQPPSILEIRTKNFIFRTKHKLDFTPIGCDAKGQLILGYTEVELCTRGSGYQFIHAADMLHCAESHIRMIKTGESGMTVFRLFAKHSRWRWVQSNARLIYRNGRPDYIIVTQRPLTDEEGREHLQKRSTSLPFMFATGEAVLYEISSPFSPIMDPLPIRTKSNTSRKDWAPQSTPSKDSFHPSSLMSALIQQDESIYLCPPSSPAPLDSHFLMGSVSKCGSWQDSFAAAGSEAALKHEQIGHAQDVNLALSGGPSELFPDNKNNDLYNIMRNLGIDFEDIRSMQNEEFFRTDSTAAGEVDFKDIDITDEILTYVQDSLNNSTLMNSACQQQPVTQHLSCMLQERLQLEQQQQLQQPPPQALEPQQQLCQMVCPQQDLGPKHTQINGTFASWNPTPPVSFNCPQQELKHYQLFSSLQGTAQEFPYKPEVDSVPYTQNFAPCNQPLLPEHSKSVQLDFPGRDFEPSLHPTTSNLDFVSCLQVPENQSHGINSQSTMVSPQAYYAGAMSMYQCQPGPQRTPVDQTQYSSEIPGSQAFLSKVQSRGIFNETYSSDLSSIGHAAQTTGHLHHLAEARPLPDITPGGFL

AHR^b = AHR^b (Mus musculus, UniProt P30561, M589L/N533S/P471L); experiment: CYP1A1 mRNA (qPCR) in splenocytes of wild-type C57BL/6J mice
Sequence of AHR^b (P11499 whole entry partner, one chain of several): as the sequence (P11499 whole entry partner, one chain of several, canonical isoform) above

wild-type AHR (AHR^b) = target: T4, wild-type AHR (AHR^b) (Mus musculus, UniProt P30561, M589L/N533S/P471L); experiment: DRE-luciferase in COS-1 cells transfected with wild-type mAHR
T4 sequence (P30561 10-805 P471L/N533S/M589L): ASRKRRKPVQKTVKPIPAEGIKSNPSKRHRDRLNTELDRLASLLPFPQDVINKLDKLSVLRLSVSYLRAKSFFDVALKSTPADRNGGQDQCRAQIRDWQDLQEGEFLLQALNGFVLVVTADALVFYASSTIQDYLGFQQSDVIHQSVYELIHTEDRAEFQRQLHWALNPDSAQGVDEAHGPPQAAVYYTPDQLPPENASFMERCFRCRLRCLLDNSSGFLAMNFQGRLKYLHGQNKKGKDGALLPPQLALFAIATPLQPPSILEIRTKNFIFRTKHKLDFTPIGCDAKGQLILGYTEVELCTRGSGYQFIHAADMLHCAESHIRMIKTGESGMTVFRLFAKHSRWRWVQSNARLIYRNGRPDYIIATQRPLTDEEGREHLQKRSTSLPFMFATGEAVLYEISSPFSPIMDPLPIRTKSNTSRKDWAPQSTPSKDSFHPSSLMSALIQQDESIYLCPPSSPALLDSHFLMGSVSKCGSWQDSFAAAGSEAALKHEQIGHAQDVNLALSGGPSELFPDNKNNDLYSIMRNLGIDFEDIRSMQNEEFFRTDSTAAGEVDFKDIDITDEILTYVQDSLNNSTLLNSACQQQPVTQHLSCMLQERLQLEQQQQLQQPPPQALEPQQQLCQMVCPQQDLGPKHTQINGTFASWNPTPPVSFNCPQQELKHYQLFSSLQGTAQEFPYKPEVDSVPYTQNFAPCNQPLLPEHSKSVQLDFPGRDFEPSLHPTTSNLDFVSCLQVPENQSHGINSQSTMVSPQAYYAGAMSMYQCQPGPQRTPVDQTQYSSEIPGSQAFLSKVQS

[12] = target: murine AHR^d low affinity receptor (Mus musculus, UniProt P30561, A375V); experiment: EROD activity in AHR^d-15 cells (rat hepatoma BP8 expressing murine AHR^d)
Sequence of murine AHR^d low affinity receptor (P34058 whole entry partner, one chain of several): as the sequence (P11499 whole entry partner, one chain of several, canonical isoform) above

AHR^d [13] = target: T2, AHR^d; design: endogenous in cells; host or cells: primary splenocytes of AHR^d congenic mice; conditions: cited from earlier work
[14] = target: T5, high affinity AHR isoform (Rattus norvegicus, UniProt P41738)
T5 sequence (P41738 10-853): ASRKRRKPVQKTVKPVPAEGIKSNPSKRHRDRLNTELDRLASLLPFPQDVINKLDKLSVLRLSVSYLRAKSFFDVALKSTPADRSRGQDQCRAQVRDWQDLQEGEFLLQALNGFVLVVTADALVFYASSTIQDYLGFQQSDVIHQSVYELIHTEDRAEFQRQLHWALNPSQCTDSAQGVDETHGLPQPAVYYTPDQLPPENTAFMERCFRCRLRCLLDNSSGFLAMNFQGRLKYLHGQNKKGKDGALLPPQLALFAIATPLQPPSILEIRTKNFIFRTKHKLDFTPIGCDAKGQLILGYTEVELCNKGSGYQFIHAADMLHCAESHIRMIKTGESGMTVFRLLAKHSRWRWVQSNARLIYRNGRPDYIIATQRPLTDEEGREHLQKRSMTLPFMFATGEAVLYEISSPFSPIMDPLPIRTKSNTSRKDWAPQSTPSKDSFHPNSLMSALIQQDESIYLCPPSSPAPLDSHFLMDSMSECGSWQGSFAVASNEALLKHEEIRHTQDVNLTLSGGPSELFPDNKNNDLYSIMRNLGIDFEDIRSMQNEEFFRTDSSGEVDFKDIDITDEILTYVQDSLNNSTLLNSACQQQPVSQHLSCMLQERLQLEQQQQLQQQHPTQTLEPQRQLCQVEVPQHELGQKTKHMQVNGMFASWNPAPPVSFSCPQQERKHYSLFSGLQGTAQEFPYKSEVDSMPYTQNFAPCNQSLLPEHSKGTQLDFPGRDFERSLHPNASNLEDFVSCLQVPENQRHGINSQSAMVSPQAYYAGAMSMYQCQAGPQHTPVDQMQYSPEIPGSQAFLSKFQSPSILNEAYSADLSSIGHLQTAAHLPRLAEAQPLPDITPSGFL

AHR^d [15] = target: T2, AHR^d; experiment: Hepatic microsomal EROD activity after oral dosing, DBA/2J mice; assay type: in vivo, mouse (DBA/2J); design: from tissue; host or cells: liver of DBA/2J mice dosed orally; conditions: oral SU5416 30, 80, 120 mg/kg; BNF 120 mg/kg, after 48 hours

Compound: O=Cc1c2[nH]c3ccccc3c2cc2[nH]c3ccccc3c12 [FICZ, formylindolo[3,2-b]carbazole]
- effect on EAE (EAE): aggravates this syndrome

Compound: Cc1cc(C)c(/C=C2\C(=O)Nc3ccccc32)[nH]1 [SU5416, 3-[(2,4-dimethylpyrrol-5-yl)methylidenyl]-indolin-2-one]
- IDO mRNA induction (IDO): induced significant amounts of IDO mRNA
- FoxP3 mRNA in pDC/T cell coculture (pDC/T cell coculture): generated
- IDO mRNA in pDC/T cell coculture (pDC/T cell coculture): generated
- plasma half-life [1]: 30 min
- effect on EAE (EAE): abrogate EAE
- effect on LPS-induced airway inflammation [2]: blocked LPS-induced airway inflammation
- tolerability in clinical trials [3]: well tolerated
- inhibition of DRE activation by titrated CH223191 (AHR [4]): minimal inhibition
- IL-17 protein in supernatant (naive T cells [5]; higher doses): did not see this effect
- IL-17 protein in supernatant (naive T cells [5]; low doses): small increase in IL-17 protein
- skin graft survival (skin graft rejection): prolonged graft survival compared to the control group
- CD39 expression (naive T cells [6]): up regulated CD39 in the FoxP3^+ T cells
- FoxP3 protein expression by flow cytometry (naive T cells [6]): significantly enhanced the FoxP3 protein expression
- pups with closed DV (AHR^fxneo/fxneo mice [7]): 13 of 22

Compound: Clc1cc2c(cc1Cl)Oc1cc(Cl)c(Cl)cc1O2 [TCDD, 2,3,7,8-tetrachlorodibenzo-p-dioxin]
- IC50 (AHR (AHR^b isoform)): 1.5 nM
- FoxP3 mRNA in pDC/T cell coculture (pDC/T cell coculture): up regulation was also seen
- IDO mRNA in pDC/T cell coculture (pDC/T cell coculture): up regulation was also seen
- duration of luciferase (DRE) activity (AHR [8]): long duration DRE-binding
- closure of DV by in utero activation in hypomorphs (AHR^fxneo/fxneo mice [9]): successfully closed the DV
- effect on EAE (EAE): ameliorate the symptoms
- EC50 (AHR^d [10]): 1.89 nM
- total fold change of CYP1A1, AHR^b versus AHR^d (AHR^d [10]; splenocytes, qPCR, 4 hours): more CYP1A1 in AHR^b compared to AHR^d mice
- EC50 [11]: 2.47 nM
- inhibition of DRE activation by titrated CH223191 (AHR [4]; 1 nM TCDD or 100 nM SU5416, 4 hours): inhibited
- EC50 (AHR^b): 0.461 nM
- EC50 (wild-type AHR (AHR^b)): 0.73 nM
- shift of EROD dose curve between AHR^b (5L) and AHR^d-15 ([12]; to the left for the AHR^b isoform): 1.5 orders of magnitude
- binding affinity of AHR^d relative to AHR^b (AHR^d [13]): one-fifteenth to one-twentieth

Compound: c1ccc2cc3c(ccc4ccccc43)cc2c1 [1,2-Benzanthracene]
- IC50 (AHR (AHR^b isoform); C57BL/6J hepatic cytosol, 1 nM radioligand, read-out: IC50, competitive binding): 13.7 nM

Compound: O=c1cc(-c2ccccc2)oc2ccc3ccccc3c12 [BNF, β-naphthoflavone]
- IC50 (AHR (AHR^b isoform)): 2.8 nM
- EROD response in 5L cell line [14]: strong response
- hepatic EROD activity (AHR^d [15]): dramatically decreased in vivo activity
- EROD response in AHR^d-15 cells ([12]; doses as high as 10 uM): no response
